Data: US6413998B1, “Compositions and methods for treating bone deficit conditions” (Osteoscreen, Inc., priority 1995, dated 2002)

Legend:
BMP2 promoter = assay: BMP-2 promoter luciferase reporter high throughput screening in 2T3-BMP-2-LUC cells; type: cell-based, mouse; conditions: at concentration of maximal activity, about 3 μM
Text: A rapid throughput screening test for compounds capable of stimulating expression of a reporter gene linked to a BMP promoter (a surrogate for the production of bone morphogenetic factors that are endogenously produced) is described in U.S. application Ser. No. 08/458,434, filed Jun. 2, 1995, the entire contents of which are incorporated herein by reference. This assay is also described as a portion of a study of immortalized murine osteoblasts (derived from a mouse expressing a transgene composed of a BMP2 promoter driving expression of T-antigen) in Ghosh-Choudhery, N. et al. Endocrinology (1996) 137:331-39. […]
Briefly, the assay utilizes cells transformed permanently or transiently with constructs in which the promoter of a bone morphogenetic protein, specifically BMP2 or BMP4, is coupled to a reporter gene, typically luciferase. These transformed cells are then evaluated for the production of the reporter gene product; compounds that activate the BMP promoter will drive production of the reporter protein, which can be readily assayed. […]
The treated cells were incubated for 24 hours at 37° C. and 5% CO2. […] Luminescence was measured on an automated 96-well luminometer, and was expressed as either picograms of luciferase activity per well or as picograms of luciferase activity per microgram of protein. […]

ICR Swiss white mice = assay: In vivo assay of effects of compounds on murine calvarial bone growth; parameters: species or system mouse; conditions: compared to vehicle control; subcutaneous injection over right calvaria, day 14
Protocol: Male ICR Swiss white mice, aged 4-6 weeks and weighing 13-26 gm, are employed, using 4-5 mice per group. The calvarial bone growth assay is performed as described in PCT application WO 95/24211, incorporated by reference. Briefly, the test compound or appropriate control vehicle is injected into the subcutaneous tissue over the right calvaria of normal mice. Typically, the control vehicle is the vehicle in which the compound was solubilzed, and is PBS containing 5% DMSO or is PBS containing Tween (2 μl/10 ml). The animals are sacrificed on day 14 and bone growth measured by histomorphometry. Bone samples for quantitation are cleaned from adjacent tissues and fixed in 10% buffered formalin for 24-48 hours, decalcified in 14% EDTA for 1-3 weeks, processed through graded alcohols, and embedded in paraffin wax. Three to five μm sections of the calvaria are prepared, and representative sections are selected for histomorphometric assessment of the effects on bone formation and bone resorption. Sections are measured by using a camera lucida attachment to trace directly the microscopic image onto a digitizing plate. Bone changes are measured on sections cut 200 μm apart, over 4 adjacent 1×1 mm fields on both the injected and noninjected sides of the calvaria. […]

TMC-23 cells = assay: Alkaline phosphatase (ALP) activity in chondrogenic cell line TMC-23; type: cell-based, mouse; conditions: day 2, 10^-9 M, compared to vehicle control
Protocol: For measurement of alkaline phosphatase (ALP) activity, the technique of LF Bonewald et al. J Biol Chem (1992) 267:8943-49, was employed. Briefly, TMC-23 cells were plated in 96 well microtiter plates in DMEM containing 10% FCS at 4×10^3 cells/well. Two days after plating, the cells were confluent and the medium was replaced with fresh medium containing 10% FCS and different concentrations of compounds or recombinant BMP-2. After an additional 2 or 5 days incubation, the plates were washed twice with PBS, and then lysing solution (0.05% Triton X-100) was added (100 μl/well). The cells were lysed by three freeze-thaw cycles of −70° C. (30 min), followed by 37° C. (30 min with shaking). Twenty microliters of cell lysates were assayed with 80 μl of 5 mM p-nitrophenol phosphate in 1.5 M 2-amino-2-methyl-propanol buffer, pH 10.3 (Sigma ALP kit, Sigma Chemical Co., St. Louis, Mo.) for 10 min at 37° C. The reaction was stopped by the addition of 100 μl of 0.5 M NaOH. The spectrophotometric absorbance at 405 nm was compared to that of p-nitrophenol standards to estimate ALP activity in the samples. The protein content of the cell lysates was determined by the Bio-Rad protein assay kit (Bio-Rad, Hercules, Calif.). Specific activity was calculated using these two parameters.

Compound: c1ccc(N=NC2=NNc3ccccc3S2)cc1 [Compound 59-0008, 3-phenylazo-1H-4,1,2-benzothiadiazine]
- response (luciferase luminescence) (BMP2 promoter): approximately 175 light emission units
- increase in width of new calvarial bone (ICR Swiss white mice): 4 fold
- increase of ALP levels (TMC-23 cells): approximately 3 fold
